In patent EP4782466A1, “FUSION PROTEIN FOR INACTIVATING CORONAVIRUS AND USE THEREOF” (priority 2023, dated 2025):

Assays:
[1] = system: SARS-CoV-2 XBB pseudovirus
[2] = system: SARS-CoV-2 Alpha pseudovirus
[3] = system: WIV1 pseudovirus
[4] = system: SARS-CoV-2 BA.2 pseudovirus
[5] = system: SARS-CoV-2 BA.2.9 pseudovirus
[6] = system: SARS-CoV-2 Beta pseudovirus
[7] = system: SARS-CoV-2 BA.2.12.1 pseudovirus
[8] = system: SARS-CoV-2 BA.4.6 pseudovirus
[9] = system: SARS-CoV-2 BA.3 pseudovirus
[10] = system: Rs3367 pseudovirus
[11] = system: SARS-CoV-2 prototype pseudovirus
[12] = system: SARS-CoV pseudovirus
[13] = system: SARS-CoV-2 BA.1 pseudovirus
[14] = system: HCoV-NL63 pseudovirus
[15] = system: SARS-CoV-2 Delta pseudovirus
[16] = system: SARS-CoV-2 BF.7 pseudovirus
[17] = system: SARS-CoV-2 Lambda pseudovirus
[18] = system: SARS-CoV-2 Gamma pseudovirus
[19] = system: SARS-CoV-2 BA.5 pseudovirus
[20] = system: SARS-CoV-2 BQ.1 pseudovirus
[21] = system: SARS-CoV-2 BA.2.75 pseudovirus
[22] = system: SARS-CoV-2 BA.2.2 pseudovirus
[23] = system: coronavirus pseudoviruses such as 2019-nCoV; settings: verified in Chinese Patent Application No. CN202180001804.1; cited from earlier work

CC[C@H](C)[C@H](NC(=O)[C@H](C)NC(=O)[C@H](CCC(=O)O)NC(=O)[C@H](CCC(=O)O)NC(=O)[C@H](CC(C)C)NC(=O)[C@H](CCCCN)NC(=O)[C@H](CCCCN)NC(=O)[C@H](CCSC)NC(=O)[C@H](CCC(=O)O)NC(=O)[C@H](Cc1ccc(O)cc1)NC(=O)[C@H](CCC(=O)O)NC(=O)[C@H](CC(C)C)NC(=O)[C@H](CC(=O)O)NC(=O)[C@H](CC(C)C)NC(=O)[C@H](Cc1ccccc1)NC(=O)[C@@H](NC(=O)[C@@H](NC(=O)[C@H](CC(N)=O)NC(=O)[C@@H](NC(=O)[C@H](CCC(N)=O)NC(=O)[C@H](CC(=O)O)NC(=O)[C@H](CC(C)C)NC(=O)[C@@H](N)CO)[C@@H](C)CC)C(C)C)[C@@H](C)O)C(=O)N[C@@H](CCCCN)C(=O)N[C@@H](CCCCN)C(=O)N[C@@H](CC(C)C)C(=O)N[C@@H](CCC(=O)O)C(=O)N[C@@H](CCC(=O)O)C(=O)N[C@@H](CO)C(=O)N[C@@H](Cc1ccc(O)cc1)C(=O)N[C@H](C(=O)N[C@@H](CC(=O)O)C(=O)N[C@@H](CC(C)C)C(=O)N[C@@H](CCCCN)C(=O)N[C@@H](CCC(=O)O)C(=O)N[C@@H](CC(C)C)C(=O)O)[C@@H](C)CC [EK1]
IC50 [1]: 233 nM | IC50 [2]: 268 nM | IC50 [3]: 2450 nM | IC50 [4]: 297 nM | IC50 [5]: 199 nM | IC50 [6]: 257 nM | IC50 [7]: 342 nM | IC50 [8]: 473 nM | IC50 [9]: 136 nM | IC50 [10]: 1340 nM | IC50 [11]: 186 nM | IC50 [12]: 841 nM | IC50 [13]: 70.5 nM | IC50 [14]: 1070 nM | IC50 [15]: 150 nM | IC50 [16]: 584 nM | IC50 [17]: 995 nM | IC50 [18]: 277 nM | IC50 [19]: 568 nM | IC50 [20]: 136 nM | IC50 [21]: 331 nM | IC50 [22]: 162 nM

SLDQINVTFLDLEYEMKKLEEAIKKLEESYIDLKEL-GSG-DPEG4-K(palmitic) [EK1-palmitic]
inhibitory activity against coronavirus pseudoviruses [23]: possess inhibitory activity

SLDQINVTFLDLEYEMKKLEEAIKKLEESYIDLKEL-GSGSG-DPEG4-C(cholesterol) [EK1-chol]
inhibitory activity against coronavirus pseudoviruses [23]: possess inhibitory activity
